{
  "source": "PubChem BioAssay AID330",
  "about": "(DTP/NCI, 2004)",
  "system": "P388 leukemia ip, CD2F1 mice, survival T/C",
  "experiment": "NCI In Vivo Anticancer Drug Screen. Data for tumor model P388 Leukemia (intraperitoneal) in CD2F1 (CDF1) mice",
  "conditions": "endpoint: median survival time, higher = longer survival",
  "how_it_was_run": "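Mice carrying the transplanted tumor received test compound or vehicle. Survival was recorded in each group, and the value is the treated-group measurement divided by that of the vehicle-treated control group.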",
  "key": {"[1]": {"conditions": "dose: 12.5 mg/kg/injection, schedule: Q01DX009 (ip), vehicle: saline with Tween-80"}, "[2]": {"conditions": "dose: 50.0 mg/kg/injection, schedule: Q01DX009 (ip), vehicle: saline with Tween-80"}, "[3]": {"conditions": "dose: 50.0 mg/kg/injection, schedule: Q01DX009 (ip), vehicle: Klucel (hydroxypropylcellulose) (HPC)"}, "[4]": {"conditions": "dose: 100.0 mg/kg/injection, schedule: Q01DX009 (ip), vehicle: Klucel (hydroxypropylcellulose) (HPC)"}, "[5]": {"conditions": "dose: 200.0 mg/kg/injection, schedule: Q01DX009 (ip), vehicle: Klucel (hydroxypropylcellulose) (HPC)"}, "[6]": {"conditions": "dose: 100.0 mg/kg/injection, schedule: Q01DX009 (ip), vehicle: saline with Tween-80"}},
  "note": "“And” between values parts separate entries of the source, which are not always exact repeats. Equal values may be shown once. Toxic doses and inconclusive results are not listed.",
  "data": [
    {"smiles": "COc1cc(Br)c(-c2coc3c(OC)c(OC)ccc3c2=O)cc1OC", "values": [
      {"measurement": "T/C", "setting": "dose: 15.0 mg/kg/injection, schedule: Q01DX005 (ip), vehicle: saline with Tween-80", "result": "89 % of control"},
      {"measurement": "T/C", "setting": "dose: 30.0 mg/kg/injection, schedule: Q01DX005 (ip), vehicle: saline with Tween-80", "result": "88 % of control"},
      {"measurement": "T/C", "setting": "dose: 60.0 mg/kg/injection, schedule: Q01DX005 (ip), vehicle: saline with Tween-80", "result": "86 % of control"}
    ]},
    {"smiles": "COc1cccc(OC)c1OCCN", "values": [
      {"measurement": "T/C", "setting": "dose: 50.0 mg/kg/injection, schedule: Q01DX009 (ip), vehicle: saline", "result": "111 % of control"},
      {"measurement": "T/C", "setting": "dose: 100.0 mg/kg/injection, schedule: Q01DX009 (ip), vehicle: saline", "result": "99 % of control"}
    ]},
    {"smiles": "CN(C)CCOc1ccc2c(c1)CC/C(=C\\c1ncc([N+](=O)[O-])n1C)C2=O", "values": [
      {"measurement": "T/C", "setting": "[1]", "result": "108 % of control"},
      {"measurement": "T/C", "setting": "dose: 25.0 mg/kg/injection, schedule: Q01DX009 (ip), vehicle: saline with Tween-80", "result": "108 % of control"},
      {"measurement": "T/C", "setting": "[2]", "result": "109 % of control and 118 % of control"}
    ]},
    {"smiles": "CCN(CC)C(=O)S(=O)(=O)c1ccccc1", "values": [
      {"measurement": "T/C", "setting": "dose: 12.5 mg/kg/injection, schedule: Q01DX009 (ip), vehicle: Klucel (hydroxypropylcellulose) (HPC)", "result": "106 % of control"},
      {"measurement": "T/C", "setting": "dose: 25.0 mg/kg/injection, schedule: Q01DX009 (ip), vehicle: Klucel (hydroxypropylcellulose) (HPC)", "result": "101 % of control and 98 % of control"},
      {"measurement": "T/C", "setting": "[3]", "result": "120 % of control"},
      {"measurement": "T/C", "setting": "[4]", "result": "111 % of control"},
      {"measurement": "T/C", "setting": "[5]", "result": "110 % of control"}
    ]},
    {"smiles": "Cc1cc2ccccc2nc1Cl", "values": [
      {"measurement": "T/C", "setting": "dose: 60.0 mg/kg/injection, schedule: Q01DX005 (ip), vehicle: saline + Tween-80 + alcohol", "result": "100 % of control"},
      {"measurement": "T/C", "setting": "dose: 120.0 mg/kg/injection, schedule: Q01DX005 (ip), vehicle: saline + Tween-80 + alcohol", "result": "104 % of control"},
      {"measurement": "T/C", "setting": "dose: 240.0 mg/kg/injection, schedule: Q01DX005 (ip), vehicle: saline + Tween-80 + alcohol", "result": "104 % of control"}
    ]},
    {"smiles": "O=c1c2ccccc2nc(-c2ccccc2)n1-c1cc(C(F)(F)F)cc(C(F)(F)F)c1", "values": [
      {"measurement": "T/C", "setting": "dose: 6.25 mg/kg/injection, schedule: Q01DX009 (ip), vehicle: saline with Tween-80", "result": "99 % of control"},
      {"measurement": "T/C", "setting": "[1]", "result": "90 % of control"}
    ]},
    {"smiles": "O=C(N/N=C\\C12CC3CC(CC(C3)C1)C2)c1ccncc1", "values": [
      {"measurement": "T/C", "setting": "[2]", "result": "96 % of control"},
      {"measurement": "T/C", "setting": "[6]", "result": "90 % of control"}
    ]},
    {"smiles": "CN1c2ccccc2S(=O)(=O)n2c(Cc3ccccc3)nnc21", "values": [
      {"measurement": "T/C", "setting": "dose: 100.0 mg/kg/injection, schedule: Q04DX002 (ip), vehicle: saline with Tween-80", "result": "92 % of control"},
      {"measurement": "T/C", "setting": "dose: 200.0 mg/kg/injection, schedule: Q04DX002 (ip), vehicle: saline with Tween-80", "result": "90 % of control"},
      {"measurement": "T/C", "setting": "dose: 400.0 mg/kg/injection, schedule: Q04DX002 (ip), vehicle: saline with Tween-80", "result": "90 % of control"}
    ]},
    {"smiles": "C[N+]1(C)[B]C[N+](C)(C)[B-]1", "values": [
      {"measurement": "T/C", "setting": "[3]", "result": "92 % of control"},
      {"measurement": "T/C", "setting": "[4]", "result": "105 % of control"},
      {"measurement": "T/C", "setting": "[5]", "result": "103 % of control"}
    ]},
    {"smiles": "CCOc1ccc(NC(=O)C(C(C)N2CCCCC2)N2CCCCC2)cc1", "note": "(stereo unspecified)", "values": [
      {"measurement": "T/C", "setting": "dose: 12.5 mg/kg/injection, schedule: Q01DX009 (ip), vehicle: saline", "result": "93 % of control"},
      {"measurement": "T/C", "setting": "dose: 25.0 mg/kg/injection, schedule: Q01DX009 (ip), vehicle: saline", "result": "87 % of control"}
    ]},
    {"smiles": "c1ccc(C2OCC3(CO2)COC(c2ccccc2)OC3)cc1", "note": "(stereo unspecified)", "values": [
      {"measurement": "T/C", "setting": "[2]", "result": "90 % of control"},
      {"measurement": "T/C", "setting": "[6]", "result": "100 % of control"},
      {"measurement": "T/C", "setting": "dose: 200.0 mg/kg/injection, schedule: Q01DX009 (ip), vehicle: saline with Tween-80", "result": "90 % of control"}
    ]},
    {"smiles": "CCOC(=O)c1cnc(SC)n(-c2ccc(Cl)cc2)c1=O", "values": [
      {"measurement": "T/C", "setting": "dose: 50.0 mg/kg/injection, schedule: Q01DX005 (ip), vehicle: Klucel (hydroxypropylcellulose) (HPC)", "result": "100 % of control"},
      {"measurement": "T/C", "setting": "dose: 100.0 mg/kg/injection, schedule: Q01DX005 (ip), vehicle: Klucel (hydroxypropylcellulose) (HPC)", "result": "100 % of control"},
      {"measurement": "T/C", "setting": "dose: 200.0 mg/kg/injection, schedule: Q01DX005 (ip), vehicle: Klucel (hydroxypropylcellulose) (HPC)", "result": "108 % of control"}
    ]},
    {"smiles": "CC(=O)OCC1OC([S-])C(OC(C)=O)C(OC(C)=O)C1OC(C)=O.CC[PH+](CC)CC.CC[PH+](CC)CC.[Au].[Au]", "note": "(stereo unspecified)", "values": [
      {"measurement": "T/C", "setting": "dose: 5.0 mg/kg/injection, schedule: Q01DX009 (ip), vehicle: Klucel (hydroxypropylcellulose) (HPC)", "result": "121 % of control"},
      {"measurement": "T/C", "setting": "dose: 10.0 mg/kg/injection, schedule: Q01DX009 (ip), vehicle: Klucel (hydroxypropylcellulose) (HPC)", "result": "163 % of control"}
    ]},
    {"smiles": "O=C(CC1(O)C(=O)N(CN2CCCCC2)c2ccccc21)c1ccccc1", "note": "(stereo unspecified)", "values": [
      {"measurement": "T/C", "setting": "[2]", "result": "110 % of control"},
      {"measurement": "T/C", "setting": "[6]", "result": "97 % of control"}
    ]},
    {"smiles": "C=CC(C=C)O[Si](C)(C)C(C)(C)C", "values": [
      {"measurement": "T/C", "setting": "dose: 23.0 mg/kg/injection, schedule: Q01DX005 (ip), vehicle: saline", "result": "101 % of control"},
      {"measurement": "T/C", "setting": "dose: 46.0 mg/kg/injection, schedule: Q01DX005 (ip), vehicle: saline", "result": "105 % of control"},
      {"measurement": "T/C", "setting": "dose: 92.0 mg/kg/injection, schedule: Q01DX005 (ip), vehicle: saline", "result": "105 % of control"}
    ]}
  ]
}
